Data: patent US20220386606A1, “SPECIFICALLY SUBSTITUTED 3-PHENYL-5-SPIROCYCLOPENTYL-3-PYRROLIN-2-ONES AND THEIR USE AS HERBICIDES” (Bayer Aktiengesellschaft, priority 2019, published 2022)

How the values were obtained:
ECHCG [1] = assay: Pre-emergence herbicidal action against ECHCG; assay type: in vivo, Echinochloa crus-galli; conditions: 320 g/ha, scored visually after 3 weeks vs untreated controls
Summary of the method: (§1)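 Sandy loam, wood-fiber pots, seeds covered with soil. Spray onto soil surface: aqueous WP/EC, 600 to 800 L/ha, 0.2% wetting agent. Greenhouse 3 weeks; visual % score vs untreated controls.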

ALOMY [2] = assay: Post-emergence herbicidal action against ALOMY; assay type: in vivo, Alopecurus myosuroides; conditions: 80 g/ha, visual assessment after about 3 weeks
Summary of the method: (§2)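 Weeds and crops grown in sandy loam in the greenhouse, treated post-emergence at the one-leaf stage (2–3 weeks after sowing). WP or EC formulations sprayed as aqueous suspension/emulsion at 600–800 l/ha water with 0.2% wetting agent. Visual % activity scored after about 3 weeks versus untreated controls (100% = dead, 0% = like control).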

LOLRI [3] = assay: Pre-emergence herbicidal action against LOLRI (Table 8, titled post-emergence at 320 g/ha); assay type: in vivo, Lolium rigidum; conditions: table stands in the pre-emergence section
Summary of the method: as §1

ABUTH = assay: Post-emergence herbicidal action against ABUTH; assay type: in vivo, Abutylon threophrasti; conditions: 80 g/ha, visual assessment about 3 weeks after treatment vs untreated controls
Summary of the method: as §2

LOLRI [4] = assay: Post-emergence herbicidal action against LOLRI; assay type: in vivo, Lolium rigidum; conditions: 80 g/ha, visual assessment about 3 weeks after treatment vs untreated controls
Summary of the method: as §2

PHBPU = assay: Pre-emergence herbicidal action against PHBPU; assay type: in vivo; conditions: scored visually after 3 weeks, 100% = plants have died, 0% = like control plants
Text: Seeds of monocotyledonous and dicotyledonous weed plants and crop plants are laid out in sandy loam soil in wood-fiber pots and covered with soil. The compounds of the invention, formulated in the form of wettable powders (WP) or as emulsion concentrates (EC), are then applied to the surface of the covering soil as aqueous suspension or emulsion at a water application rate equating to 600 to 800 L/ha with addition of 0.2% wetting agent.
After the treatment, the pots are placed in a greenhouse and kept under good growth conditions for the trial plants. The damage to the test plants is scored visually after a test period of 3 weeks by comparison with untreated controls (herbicidal activity in percent (%): 100% activity=the plants have died, 0% activity=like control plants).

AVEFA = assay: Pre-emergence herbicidal action against AVEFA; assay type: in vivo, Avena fatua; conditions: 320 g/ha, scored visually after 3 weeks vs untreated controls
Summary of the method: as §1

VIOTR = assay: Pre-emergence herbicidal action against VIOTR; assay type: in vivo, Viola tricolor; conditions: 320 g/ha
Summary of the method: as §1

ECHCG [5] = assay: Post-emergence herbicidal action against ECHCG; assay type: in vivo, Echinochloa crus-galli; conditions: 80 g/ha, visual assessment about 3 weeks after treatment vs untreated controls
Summary of the method: as §2

DIGSA [6] = assay: Pre-emergence herbicidal action against DIGSA; assay type: in vivo, Digitaria sanguinalis; conditions: 320 g/ha, scored visually after 3 weeks vs untreated controls
Summary of the method: as §1

SETVI [7] = assay: Pre-emergence herbicidal action against SETVI; assay type: in vivo, Setaria viridis; conditions: 320 g/ha, scored visually after 3 weeks vs untreated controls
Summary of the method: as §1

DIGSA [8] = assay: Post-emergence herbicidal action against DIGSA; assay type: in vivo, Digitaria sanguinalis; conditions: 80 g/ha, visual assessment about 3 weeks after treatment vs untreated controls
Summary of the method: as §2

POLCO = assay: Pre-emergence herbicidal action against POLCO; assay type: in vivo, Polygonum convolvulus; conditions: 320 g/ha
Summary of the method: as §1

ALOMY [9] = assay: Pre-emergence herbicidal action against ALOMY; assay type: in vivo, Alopecurus myosuroides; conditions: 320 g/ha, scored visually after 3 weeks vs untreated controls
Summary of the method: as §1

SETVI [10] = assay: Post-emergence herbicidal action against SETVI; assay type: in vivo, Setaria viridis; conditions: 80 g/ha, visual assessment about 3 weeks after treatment vs untreated controls
Summary of the method: as §2

MATIN = assay: Pre-emergence herbicidal action against MATIN; assay type: in vivo; conditions: 320 g/ha
Summary of the method: as §1

AMARE = assay: Pre-emergence herbicidal action against AMARE; assay type: in vivo, Amaranthus retroflexus; conditions: 320 g/ha
Summary of the method: as §1

CC#Cc1cc(Br)c(C2=C(OC(=O)OCC)[C@]3(CC[C@H](COCC)C3)NC2=O)c(OC)c1 (stereo in doubt) [Example P-13, [3-(2-Bromo-6-methoxy-4-prop-1-ynyl-phenyl)-8-(ethoxymethyl)-2-oxo-1-azaspiro[4.4]non-3-en-4-yl] ethyl carbonate]
80%: Post-emergence action against ABUTH in % (ABUTH) | Pre-emergence action against POLCO in % (POLCO) | Pre-emergence action against MATIN in % (MATIN)
90%: Pre-emergence action against AMARE in % (AMARE)
100%: Pre-emergence action against ECHCG in % (ECHCG [1]) | Post-emergence action against ALOMY in % (ALOMY [2]) | Pre-emergence herbicidal action against LOLRI in % (LOLRI [3]) | Post-emergence action against LOLRI in % (LOLRI [4]) | Pre-emergence action at 320 g/ha against PHBPU in % (PHBPU) | Pre-emergence action against AVEFA in % (AVEFA) | Pre-emergence action against VIOTR in % (VIOTR) | Post-emergence action against ECHCG in % (ECHCG [5]) | Pre-emergence action against DIGSA in % (DIGSA [6]) | Pre-emergence action against SETVI in % (SETVI [7]) | Post-emergence action against DIGSA in % (DIGSA [8]) | Pre-emergence action against ALOMY in % (ALOMY [9]) | Post-emergence action against SETVI in % (SETVI [10])
